Test results taken from ChEMBL document CHEMBL1136592, “Orally efficacious NR2B-selective NMDA receptor antagonists” (Bioorg Med Chem Lett, 2003).

Columns and labels:
[1] = biological target: T1, Glutamate receptor ionotropic, NMDA 2B (Homo sapiens, UniProt Q05586+Q13224); test: Displacement of NMDA receptor-specific [3H]ifenprodil binding to recombinant human NMDA receptor, NR2B subtype expressed in L cells; assay type: cell-based
[2] = Bioavailability in rat; assay type: ADME, organism-based; settings: in vivo
[3] = Half life period in rat; assay type: ADME, organism-based; settings: in vivo
[4] = biological target: Glutamate receptor ionotropic, NMDA 2A (Homo sapiens, UniProt Q05586+Q12879); test: Inhibition of the response to NMDA glutamate/glycine receptor NR2A subtype was determined using FLIPR assay
[5] = biological target: T1, Glutamate receptor ionotropic, NMDA 2B; test: Inhibition of the response to NMDA glutamate/glycine receptor NR2B subtype was determined using FLIPR assay
Rattus norvegicus = test: Efficacy was determined by scoring behavioral responses to noxious stimuli in carrageenan-induced hyperalgesia assay in the rat after oral administration; assay type: functional

T1 sequence (Q13224 whole entry, one chain of several): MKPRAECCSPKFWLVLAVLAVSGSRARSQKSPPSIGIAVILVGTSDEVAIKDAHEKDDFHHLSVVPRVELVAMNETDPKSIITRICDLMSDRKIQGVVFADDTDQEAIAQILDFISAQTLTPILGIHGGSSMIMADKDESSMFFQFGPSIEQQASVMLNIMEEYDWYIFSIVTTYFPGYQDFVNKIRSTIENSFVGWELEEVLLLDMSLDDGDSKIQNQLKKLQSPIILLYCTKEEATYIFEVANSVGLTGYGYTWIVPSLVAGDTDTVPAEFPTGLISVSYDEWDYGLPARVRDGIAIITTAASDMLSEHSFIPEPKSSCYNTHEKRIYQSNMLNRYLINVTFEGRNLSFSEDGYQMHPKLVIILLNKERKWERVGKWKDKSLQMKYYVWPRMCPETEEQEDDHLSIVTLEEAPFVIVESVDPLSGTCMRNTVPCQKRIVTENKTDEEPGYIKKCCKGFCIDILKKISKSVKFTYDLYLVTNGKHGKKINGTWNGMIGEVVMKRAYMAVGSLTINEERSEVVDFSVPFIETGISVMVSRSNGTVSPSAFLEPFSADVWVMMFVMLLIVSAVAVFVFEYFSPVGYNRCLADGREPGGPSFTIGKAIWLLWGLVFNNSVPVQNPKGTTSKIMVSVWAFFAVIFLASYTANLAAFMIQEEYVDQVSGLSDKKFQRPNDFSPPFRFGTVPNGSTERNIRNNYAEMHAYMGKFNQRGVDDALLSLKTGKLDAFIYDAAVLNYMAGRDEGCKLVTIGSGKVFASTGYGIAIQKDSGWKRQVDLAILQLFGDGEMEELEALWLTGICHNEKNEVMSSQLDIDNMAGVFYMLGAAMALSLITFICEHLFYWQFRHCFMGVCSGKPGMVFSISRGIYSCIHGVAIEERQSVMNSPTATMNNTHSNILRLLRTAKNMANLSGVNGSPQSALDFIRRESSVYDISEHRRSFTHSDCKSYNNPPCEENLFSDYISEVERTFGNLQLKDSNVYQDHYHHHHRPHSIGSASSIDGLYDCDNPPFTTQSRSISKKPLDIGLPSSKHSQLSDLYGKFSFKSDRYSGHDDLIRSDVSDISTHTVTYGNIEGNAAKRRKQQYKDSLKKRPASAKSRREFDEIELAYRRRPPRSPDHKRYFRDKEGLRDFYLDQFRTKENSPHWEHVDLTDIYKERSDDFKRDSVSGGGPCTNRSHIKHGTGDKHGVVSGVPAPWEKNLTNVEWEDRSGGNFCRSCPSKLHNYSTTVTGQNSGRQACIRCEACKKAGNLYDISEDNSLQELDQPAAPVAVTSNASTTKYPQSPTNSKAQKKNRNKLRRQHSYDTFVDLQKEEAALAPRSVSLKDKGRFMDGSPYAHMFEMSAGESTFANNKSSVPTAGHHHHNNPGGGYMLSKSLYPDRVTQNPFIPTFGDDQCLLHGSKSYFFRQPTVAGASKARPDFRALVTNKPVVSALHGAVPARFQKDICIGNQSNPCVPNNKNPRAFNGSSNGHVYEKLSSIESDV
Glutamate receptor ionotropic, NMDA 2A, sequence (Q12879 whole entry, one chain of several): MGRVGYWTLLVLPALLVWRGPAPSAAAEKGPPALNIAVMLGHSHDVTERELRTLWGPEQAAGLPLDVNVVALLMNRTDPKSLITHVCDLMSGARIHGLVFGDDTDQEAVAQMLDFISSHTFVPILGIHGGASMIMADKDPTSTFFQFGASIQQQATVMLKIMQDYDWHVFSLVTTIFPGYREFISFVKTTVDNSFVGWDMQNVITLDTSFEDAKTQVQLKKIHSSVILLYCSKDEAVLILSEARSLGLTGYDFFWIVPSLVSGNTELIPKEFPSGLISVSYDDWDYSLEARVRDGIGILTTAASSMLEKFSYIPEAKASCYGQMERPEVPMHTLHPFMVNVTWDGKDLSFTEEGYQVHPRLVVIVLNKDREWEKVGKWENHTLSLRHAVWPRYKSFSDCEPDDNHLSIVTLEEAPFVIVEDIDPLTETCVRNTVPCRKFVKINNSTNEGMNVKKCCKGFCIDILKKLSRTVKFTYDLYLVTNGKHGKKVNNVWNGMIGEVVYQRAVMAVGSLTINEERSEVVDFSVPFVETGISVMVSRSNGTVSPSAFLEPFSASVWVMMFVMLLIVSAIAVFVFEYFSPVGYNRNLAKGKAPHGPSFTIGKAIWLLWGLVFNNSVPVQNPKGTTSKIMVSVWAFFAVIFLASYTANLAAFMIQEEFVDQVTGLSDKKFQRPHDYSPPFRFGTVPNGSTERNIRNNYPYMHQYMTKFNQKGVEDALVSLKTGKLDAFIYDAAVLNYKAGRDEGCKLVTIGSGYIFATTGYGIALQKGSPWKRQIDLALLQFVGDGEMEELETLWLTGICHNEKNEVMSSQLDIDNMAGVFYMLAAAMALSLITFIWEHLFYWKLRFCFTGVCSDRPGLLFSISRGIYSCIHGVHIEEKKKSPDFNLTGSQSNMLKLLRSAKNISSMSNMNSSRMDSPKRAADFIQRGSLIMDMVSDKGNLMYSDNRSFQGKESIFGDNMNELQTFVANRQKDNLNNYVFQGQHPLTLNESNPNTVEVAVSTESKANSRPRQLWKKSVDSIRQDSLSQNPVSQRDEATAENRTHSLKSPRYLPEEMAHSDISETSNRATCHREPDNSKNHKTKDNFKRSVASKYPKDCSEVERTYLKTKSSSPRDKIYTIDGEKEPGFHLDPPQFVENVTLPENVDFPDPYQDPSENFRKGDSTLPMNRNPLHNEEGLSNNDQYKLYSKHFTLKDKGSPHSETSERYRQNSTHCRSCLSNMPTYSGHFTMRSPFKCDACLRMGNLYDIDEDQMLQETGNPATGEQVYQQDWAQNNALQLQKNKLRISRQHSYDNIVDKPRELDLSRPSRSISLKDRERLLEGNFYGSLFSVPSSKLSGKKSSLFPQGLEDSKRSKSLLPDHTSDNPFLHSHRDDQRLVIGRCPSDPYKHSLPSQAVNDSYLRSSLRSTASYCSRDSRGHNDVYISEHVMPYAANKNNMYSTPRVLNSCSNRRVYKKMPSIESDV

Compound	Ki [1] [nM]	bioavailability [2] [%]	half-life [3] [h]	IC50 [4] [nM]	IC50 [5] [nM]	ED50 (Rattus norvegicus) [mg/kg]
NC(=NCc1cccc(Cl)c1)c1ccccc1F	> 15000					
NC(=NCc1ccccc1C(F)(F)F)c1ccc(OC(F)(F)F)cc1	72	100	2.45	> 10000	47	5.5
N=C(NCc1ccccc1)c1ccc(C(F)(F)F)cc1	480				360	
NC(=NCc1cccc(Cl)c1)c1ccc(C(F)(F)F)cc1	20				32	
N=C(NCc1cccc(Cl)c1)c1ccc(F)cc1	600				450	
COc1ccc(C/N=C(\N)c2ccc(OC(F)(F)F)cc2)cc1	1100					
N=C(NCc1ccccc1)c1ccc(OC(F)(F)F)cc1	120				46	
N=C(NCc1cccc(Cl)c1)c1ccc(Cl)cc1	63				160	
N=C(NCc1ccccc1OC(F)(F)F)c1ccc(Cl)c(Cl)c1	12	31	3.05	> 10000	57	7.5
NC(=NCc1cccc(Cl)c1)c1cccc(Cl)c1	800				420	
NC(=NCc1cccc(Cl)c1)c1ccccc1Cl	3900					

Second part, led by results:

Ki [1] [nM]	bioavailability [2] [%]	half-life [3] [h]	IC50 [4] [nM]	IC50 [5] [nM]	Compound	ED50 (Rattus norvegicus) [mg/kg]
9					N=C(/C=C/c1ccccc1)NCc1ccccc1	
5.7				4.1	COc1ccccc1C/N=C(\N)c1ccc(OC(F)(F)F)cc1	
1.2	4	1.53	> 10000	4.2	Cc1cc(C)cc(C/N=C(\N)c2ccc(OC(F)(F)F)cc2)c1	> 30
16	44	1.5	> 10000	110	NC(=NCc1cccc(Cl)c1)c1ccc(Cl)c(Cl)c1	14
0.6	68	7	> 10000	24	N=C(NCc1cc(Cl)cc(Cl)c1)c1ccc(OC(F)(F)F)cc1	16
970				720	NC(=NCc1ccccc1)c1ccc(Cl)cc1	
3.9				8.7	Cc1cc(C)cc(C/N=C(\N)c2ccc(C(F)(F)F)cc2)c1	
700				660	N=C(NCc1cccc(C(F)(F)F)c1)c1ccc(C(F)(F)F)cc1	
1800					N=C(NCc1ccccc1)c1ccc(-c2ccccc2)cc1	
23				9.7	COc1cccc(C/N=C(\N)c2ccc(OC(F)(F)F)cc2)c1	
> 15000					NC(=NCc1ccccc1)c1ccccc1	
2000					N=C(NCc1cccc(Cl)c1)c1cccc(F)c1	
56				48	N=C(NCc1ccccc1Cl)c1ccc(C(F)(F)F)cc1	
